Measured values published in patent US6103888A, “Mammalian cationic proteins having lipopolysaccharide binding and anti-coagulant activity” (priority 1999, dated 2000).

What was measured:
[1] = tested on: Salmonella minnesota ReLPS sensitized sheep erythrocytes; experiment: LPS hemagglutination assay (MAC); type: binding
Protocol: For hemagglutination assays, erythrocytes were sensitized with LPS as follows. One ml of 1% erythrocyte suspension (human 0 type, C3H/HeN mouse or sheep) was mixed with 0.2 ml of LPS solution and incubated at 37° C. for 30 min, followed by washing with phosphate buffered saline (PBS), and then the concentration of suspension was adjusted to 1.0%. In the case of S-LPS, the solution was heated at 100° C. for 1 hour before sensitization of erythrocytes. […] Activity of CAP was expressed as a minimum agglutinating concentration (MAC) of CAP. According to the method of Kirikae et al. (1986) Microbiol. Immunol. 30:269-274, 50 μl of 2-fold serial dilution of Re-LPS was added to 50 μl of 1.0% rabbit erythrocyte suspension, and incubated at 37° C. for 3 hour. Minimum agglutinating concentration of Re-LPS was expressed as 1 HA unit.

[2] = tested on: thioglycollate-stimulated murine peritoneal macrophages; experiment: LPS-induced tissue factor generation by macrophages (clotting assay); type: cell-based; conditions: peptides 1 μg/ml incubated with S. minnesota smooth LPS 5 minutes; 6 hr
Protocol: Tissue factor assay. Salmonella minnesota smooth LPS was incubated with each peptide (1 μg/ml) for 5 min., then the mixture was added to peritoneal murine macrophages obtained 4 days after thioglycollate stimulation. Cells were cultured for 6 hours prior to assay of tissue factor by clotting assay.
Various concentrations of Salmonella minnesota smooth LPS were incubated with each peptide (197 (RNIP), 36-1, 32-1, and 50-2) at 37° C. for 5 minutes prior to mixing with thioglycollate-stimulated murine peritoneal macrophages. Production of tissue factor after 6 hr. was measured by clotting assay. […] In the absence of LPS no tissue factor is synthesized by these cells.

Human plasma = experiment: Prothrombin time (PT); type: biochemical
Protocol: Prothrombin time (PT). Human plasma (100 μl) was incubated with 100 μl of each peptide at 37° C. for 3 min., then 100 μl of tissue factor (250 μg/ml) CaCl2 was added and clotting time was measured.

prothrombin (factor II) [3] = biological target: prothrombin (factor II) (Homo sapiens, UniProt P00734); experiment: Prothrombin activation by Echis Carinatus venom (ECV); type: biochemical
Protocol: Prothrombin activation by Echis Carinatus venom (ECV). A reaction mixture of prothrombin (factor II) (0.1 unit/ml, 200 μl), ECV (1 unit/ml, 200 μl), various concentration of peptide (70 μl), 50 μl of 25 mM-CaCl2 and 180 μl of Tris buffer was incubated at 37° C. for 10 min. To 300 μl of the reaction mixture, 60 μl of 4 mM-thrombin substrate and 240 μl of buffer was added and further incubated for 15 min.

Salmonella minnesota Re = experiment: Antibacterial CFU assay
Salmonella typhimurium = experiment: Antibacterial CFU assay; conditions: for anti-bacterial activity (CFU), in words: Salmonella typhimurium, smooth strain; for effect on CFU of S. typhimurium: high concentrations alone and in various combinations
RAW 264.7 cells = experiment: LPS- or IFNγ-induced reactive nitrogen intermediate (RNI) production, Griess nitrite assay; type: cell-based, murine; conditions: macrophages / RAW 264.7 cells
Protocol: From the sequence of the CAP18 cDNA, it was apparent that the putative N-terminal peptide of CAP18 was in fact an internal fragment of the CAP18 protein. We therefore tried to reconfirm the original protein sequence. Neutrophil-derived heparin bound cationic proteins were prepared as described above and applied to a C18 reverse phase HPLC (FIG. 1). We sequenced the major peaks. Peaks at fractions 14.5 and 15.2 correspond to defensins MCP1 and MCP2 (Territo et al. (1989) J. Clin. Invest. 84:2017-2019), respectively. Fraction 25.8 is macrophage related protein 14 (MRP14) (Odink et al. (1987) Nature 330:80-82). The fraction at 20.3 minutes corresponds to a fragment of CAP18 of approximately 4-5 kD. […] The murine macrophage cell line RAW 264.7 (obtained from ATCC) and thioglycollate-elicited murine peritoneal exudate cells are used to produce RNI. Cells are cultured at 1×10^6 /ml. in RPMI-1640 +2.5% FCS in 24 well plates in the presence or absence of different concentrations of LPS or murine rlFNγ. After 24 hr. incubation at 37° C., the cell free supernatant is collected and tested for the presence of RNI. Accumulation of nitrite in the medium is measured by a calorimetric assay based on the Griess reaction (Green et al. (1982) Anal. Biochem. 126:11) using sodium nitrite as standards. Sample (50 μl) is mixed with 50 μl of Griess reagent (1% sulfanilamide, 0.1% naphthalene diamine dihydrochloride, 2.5% H3 PO4) and after 10 min. at room temperature absorbance is read at 570 nm.

prothrombin (factor II) [4] = biological target: prothrombin (factor II)
tissue factor generation = experiment: Effect of CAP-37 on LPS-induced tissue factor generation; type: cell-based; conditions: for Tissue factor units / Tissue factor units, value in parentheses (ratio to control): CAP-37 15 HA
Protocol: Table 6 presents a comparison of the effect of RNIP, CAP18, and defensins HP-1 and HP-2 (Territo et al. (1989) J. Clin. Invest. 84:2017-2019) on LPS-induced tissue factor generation. Tissue factor assays were performed as follows. Mouse peritoneal cells were elicted with an intraperitoneal injection of thioglycolate medium and harvested 5-days later by irrigation with pyrogen-free saline. The cells were washed with RPMI 1640 medium, counted and resuspended at a concentration of 1.5-2.0×10^6 /ml in serum-free RPMI medium containing glutamine (0.29 mg/ml), penicillin (50 units/ml) and streptomycin ([…]). Adherent cells were prepared by incubating 10 ml of a cell suspension (in RPMI 1640 media in sterile culture bottle (Nunclon, 50 ml, Inter Med) for 60 min. at 37° C. in a 5% CO2 atmosphere. The plastic adherent cells were recovered by scraping of the bottle with a sterile rubber policeman. The adherent cells were then washed twice with RPMI media, resuspended in serum-free medium (1×10^6 /ml) in culture tube (Nunc cryotube, Inter Med), and stimulated with graded doses of LPS for 6 hr. at 37° C. in a 5% CO2. The cell suspension was centrifuged and cell pellet was frozen at -80° C. until clotting assays were run.
Veronal buffered saline (VBS) was added to the cell pellet, lysed by 3 cycles of freeze/thaw and sonicated for 10 sec with a hand-held sonicator microbe (Handy Sonic, model UR-20P, Tomy Seiko LTD, Tokyo). Tissue factor activity was tested in modified unactivated partial thromboplastin time (7). One tenth ml of cell lysate (1×10^6 /ml) was preincubated with mouse plasma at 37° C. for 3 min. Then 0.1 ml of 25 mM-CaCl2 which contains phospholipid was added to the mixture and clotting time was measured using a fibrometer (Bio Quest Division, Becton Dickinson, Cokeysville, USA). A standard curve obtained from serial two-fold dilutions of rabbit brain thromboplastic (Simplastin, Ono Pharmaceutical Co.) was used to transpose tissue factor activity into arbitrary tissue factor units (1 μg/ml) suspension of rabbit brain was assigned a value of 1,000 units).
.dagger.LPS was incubated with CAP37 at 37° C. for 2 hours, and th
mixture was added to cells, then cultured for 6 hours.

Molecule: 32-1: synthetic rabbit RNIP fragment, amino acids 135-143 of SEQ ID NO:4 (GLRKRLRKF) [Peptide 32-1]
- Hemagglutination [MAC], minimum agglutinating concentration [1]: > 125 µg/mL
- inhibition of LPS induced tissue factor (in words) [2]: fail to inhibit
- inhibition of the prothrombin time (PT), in words (Human plasma): inactive
- inhibition of Echis carinatus venom activation of purified factor II to IIa (in words) (prothrombin (factor II) [3]): inactive
- anti-bacterial activity (CFU), in words (Salmonella minnesota Re): not active
- effect of pretreatment on bacterial killing by peptide 197 (Salmonella typhimurium; S. typhimurium pretreated with peptide 32-1, then peptide 197): no inhibition or augmentation
- anti-bacterial activity (CFU), in words (Salmonella typhimurium): not active
- effect on CFU of S. typhimurium (Salmonella typhimurium): No effect

Molecule: 50-2: synthetic rabbit RNIP fragment, amino acids 147-171 of SEQ ID NO:4 (IKEKLKKIGQKIQGLLPKLAPRTDY) [Peptide 50-2]
- Hemagglutination [MAC], minimum agglutinating concentration [1]: > 125 µg/mL
- inhibition of LPS induced tissue factor (in words) [2]: fail to inhibit
- inhibition of the prothrombin time (PT), in words (Human plasma): inactive
- inhibition of Echis carinatus venom activation of purified factor II to IIa (in words) (prothrombin (factor II) [3]): inactive
- anti-bacterial activity (CFU), in words (Salmonella minnesota Re): not active
- anti-bacterial activity (CFU), in words (Salmonella typhimurium): not active
- effect on CFU of S. typhimurium (Salmonella typhimurium): No effect

Molecule: 187: synthetic rabbit RNIP fragment, amino acids 151-171 of SEQ ID NO:4 (LKKIGQKIQGLLPKLAPRTDY) [Peptide 187]
- inhibition of LPS-induced RNI production (in words) (RAW 264.7 cells): inactive
- Hemagglutination [MAC], minimum agglutinating concentration [1]: > 125 µg/mL

Molecule: polymyxin B [reference compound]
- inhibition of LPS-induced RNI production (in words) (RAW 264.7 cells): inhibition

B1: synthetic rabbit RNIP peptide 36-1 (peptide)
peptide: GLRKRLRKFRNKIKEKLKKIGQKIQGLLPKLA
- IC50, factor II activation by Xa (prothrombin (factor II) [4]): < 30 nM

B2: CAP-37: another cationic peptide, azurocidin (CAP37) (Morgan et al.) (protein, UniProt P20160 27-248, looked up)
Azurocidin: IVGGRKARPRQFPFLASIQNQGRHFCGGALIHARFVMTAASCFQSQNPGVSTVVLGAYDLRRRERQSRQTFSISSMSENGYDPQQNLNDLMLLQLDREANLTSSVTILPLPLQNATVEAGTRCQVAGWGSQRSGGRLSRFPRFVNVTVTPEDQCRPNNVCTGVLTRRGGICNGDGGTPLVCEGLAHGVASFSLGPCGRGPDFFTRVALFRDWIDGVLNNPGP
- inhibition of tissue factor generation (in words) (tissue factor generation): unable to inhibit tissue factor generation
- Tissue factor units (tissue factor generation; LPS 0.1 μg/ml): 383 ± 307 units /1 × 10^5 cells
- Tissue factor units, value in parentheses (ratio to control) (tissue factor generation; LPS 0.1 μg/ml): 2.3
- Tissue factor units (tissue factor generation; LPS 1.0 μg/ml): 648 ± 343 units /1 × 10^5 cells
- Tissue factor units, value in parentheses (ratio to control) (tissue factor generation; LPS 1.0 μg/ml): 3.9
- Tissue factor units (tissue factor generation; no LPS): 183 ± 67 units /1 × 10^5 cells
- Tissue factor units, value in parentheses (ratio to control) (tissue factor generation; no LPS): 1.1

B3: synthetic rabbit RNIP peptide 197 (peptide)
peptide: GLRKRLRKFRNKIKEKLKKIGQKIQGLLPKLAPRTDY
- IC50, factor II activation by Xa (prothrombin (factor II) [4]): 50 nM
